One compound from US20240376087A1, “PYRAZOLE AMIDE BASED COMPOUNDS AND USES AGAINST BREAST CANCER THEREOF” (COUNCIL OF SCIENTIFIC AND INDUSTRIAL RESEARCH AN INDIAN …, priority 2021, published 2024) can be followed below.

“Also recorded” adds a separate entry of the source.

Test [1] concerns MDA MB 231 cells. The experiment in a line: Morphological analysis by phase contrast and electron microscopy. As to conditions: MDA MB 231, phase contrast and SEM. Format: cell-based, human. The text has this: Morphological analysis of the cells treated with NIIST-AC-1 at different concentrations were monitored using phase contrast microscope Nikon EclipseTS100 (Nikon Instruments Inc., Melville, NY, USA, Magnification 20×) and SEM (Zeiss EVO 18 Special Edition) at ×2k and ×5k magnification.

Test [2] relates to MDA MB 231 cells. The experiment in a line: Nuclear fragmentation by DAPI staining. Format: cell-based, human. The conditions noted are these: MDA MB 231, DAPI staining, 24 hr. The procedure: Fragmentation of the nucleus on treatment with NIIST-AC-1 was analyzed using the cell permeable dye which binds to AT rich sequences in the minor groove of DNA. After treatment in 96 well culture plates for 24 hr, the cells were stained with DAPI for 20 min. The morphology of the stained nucleus was observed using a spinning disc fluorescent microscope at an excitation/emission of 360/460 nm (BD Pathway™ 855; Biosciences), and images were taken using the software BD Atto Vision™ version 1.6.

Test [3] deals with MDA MB 231 cells. The experiment in a line: Phosphatidyl serine translocation by annexin V staining. It counts as cell-based, human. As to conditions: MDA MB 231, annexin V staining, 24 hrs. The procedure: The translocation of phosphatidyl serine to the outer leaflet of plasma membrane during apoptosis was studied by Annexin V-Cy3™ Apoptosis Detection Kit. After treatment with different concentrations of NIIST-AC-1 for 24 hrs, the cells were washed and stained with annexin V for 10 min. After the staining solution was removed, the binding buffer was added and the cells observed under a spinning disc fluorescent microscope (BD Biosciences), and images were taken using the software BD Atto Vision version 1.6.

The next test has as its system caspase-9. Put plainly: Assay of caspase 9 (fluorometric, cell lysates). It counts as cell-based, human. As to conditions: MDA MB 231 cell lysates, LEHD-AFC. The procedure: The activities of the initiator caspase-9 and downstream executioner caspase-3 were measured using Fluorometric Assay Kit. The caspase activity in the cell lysates of control and treated cells were measured by using the fluorescent substrate DEVD-AFC (for caspase-3 activity) and LEHD-AFC (for caspase-9 activity). Samples were read at 400-nm excitation filter and 505-nm emission filter in a fluorescent microplate reader (BioTek Synergy HT) using Gen5™ ver 1.05.11 software, and the results were expressed as relative units in terms of fluorescence.

Test [4] deals with MDA MB 231 cells. Put plainly: Measurement of mitochondrial membrane potential (JC-1). It counts as cell-based, human. As to conditions: MDA MB 231, JC-1, 24 h. As for the experimental part: The cells were then treated with various concentrations of NIIST-AC-1 for 24 h. After removing the spent medium, 100 μl of freshly prepared JC-1 stain was added and samples were then incubated for 20 min in a CO2 incubator at 37° C. Immediately after the incubation, cells were observed under a spinning disc fluorescent microscope (BD Pathway 855), and images were taken using the software BD Atto Vision version 1.6.

The test system of test [5] is histone deacetylase 1 (HDAC-1). The experiment in a line: HDAC inhibition assay (colorimetric, cell lysates). Format: biochemical, human. As to conditions: enzyme assay, MDA MB 231 cell lysates. The procedure:
The histone deacetylase inhibitory activity was measured in the cell lysates using the colorimetric assay kit where we have used the substrate Ac-Lys (Ac)-pNA and trichostatin A as the positive control. After the reaction, the absorbance was measured at 400 nm and the percentage inhibition was calculated by comparing with the deacetylated standard Ac-Lys-pNA.

For test [6], the system named is MDA MB 231 cells. The experiment in a line: Wound healing (scratch wound) assay. The conditions noted are these: 24 hr. Format: cell-based, human. The procedure: Wound healing assay was performed to understand the antimigration effects of NIIST-AC-1. The confluent monolayers of cells after making the scratch were treated with the test compounds at different concentrations for 24 hr. After the time interval, the wound closure by the migration of the cells was observed under the phase-contrast microscope (Nikon Eclipse TS100), and images were captured using NIS-Elements 3.21.00 imaging software at different time points (0, 24 h) at 4× magnification. The wound area was quantified using ImageJ 1.52p software.

The test system of another test is MMP-9. Put plainly: Gelatin zymography for MMP activity. It counts as cell-based, human. As to conditions: gelatin zymography of spent medium. The procedure:
The activity of MMPs in the spent medium from the cell culture was allowed to react with the substrate gelatin impregnated in the SDS-PAGE gel. After electrophoresis, the gel was washed with Triton solution and incubated with activation buffer 50 mM Tris containing 0.2 M NaCl and 5 mM CaCl2) at 37° C. for 18-20 h for reaction to occur. The gel was stained with Coomassie Brilliant Blue solution and after destaining, gelatin cleaved zones by MMPs were observed as white clear zones which were imaged using ChemiDoc™ MP System with IMAGE LAB™ Software (Bio-Rad).

Test [7] has as its system MDA MB 231 cells. Put plainly: RNA sequencing whole transcriptome analysis and gene set enrichment. It counts as cell-based, human. As for the experimental part:
Toral RNA was isolated from the cells using RNeasy mini kit. 15 μg of cellular RNA was quality assessed (Bioanalyzer from Agilent Technologies) and used for mRNA library preparation. The mRNAs were fragmented, and the first strand of cDNA was synthesized from the cleaved RNA using random primers followed by second strand cDNA synthesis. The purified cDNA templates were enriched by PCR amplification to generate cDNA libraries. The developed libraries were presented to RNA sequencing facility and two rapid single-read 50 illumina HiSeq sequencing runs were performed. Raw reads from separate lanes of the same sample were merged for mapping. RNA sequencing was performed at Eurofins Genomics India Pvt. Ltd., Bengaluru 560048, Karnataka, India.
The output raw FASTQ files were analyzed using various tools of Galaxy platform to extract the differentially expressed genes as follows. The quality of the reads was analyzed using FastQC (Galaxy Version 0.72+galaxy1). The quality check reports were aggregated using MultiQC (Galaxy Version 1.9+galaxy1). Cutadapt (Galaxy Version 1.16.6) was used for adapter removal and filtering using threshold of minimum read length 20 and minimum quality (phred score) 20. Again, the quality was checked, and results were aggregated. The cleaned reads were mapped to a reference genome (Homo_sapiens.GRCh38.dna_sm.primary_assembly.fa.gz) and annotation file (Homo_sapiens.GRCh38.104.gtf.gz) using HISAT2 (Galaxy Version 2.1.0+galaxy7), a splice-aware alignment program. The output bam files are processed using StringTie (Galaxy Version 2.1.1) to assemble and quantitate RNA-Seq alignments into potential transcript. Later the Deseq2 (Galaxy Version 2.11.40.6+galaxy1) was used to determine normalized differentially expressed genes from the Stringtie output count tables. […] These differentially expressed genes were filtered using Filter (Galaxy Version 1.1.1) to extract significant ones by adding a filter of q-value<=0.05 and log 2 fold change >1.
The functional annotation (biological process, molecular function and pathways) was considered significant at False discovery rate (FDR B&H)<0.05. GSEA Preranked tool of standalone R program GSEA 4.1.0 was used to perform Gene Set Enrichment Analysis (GSEA) on ranked (log fold change based) list of total DEGs against CP: Canonical pathways (a pre-defined collection of 2922 gene sets) of Molecular Signatures Database (MSigDB). The enriched pathways with FDR qvalue less than 0.25 were considered significant.

Where [8] appears, read: whole transcriptome, q-value<=0.05 and log 2 fold change >1.

Consider `COc1cc(-c2cc(C(=O)NCc3cc(C(F)(F)F)cc(C(F)(F)F)c3)[nH]n2)cc(OC)c1OC` [I-8, N-(3,5-bis(trifluoromethyl)benzyl)-3-(3,4,5-trimethoxyphenyl)-1H-pyrazole-5-carboxamide], for which the “morphological changes of the cells” value in the test on MDA MB 231 cells [1] was “significant morphological changes”. For the same compound, the nuclear fragmentation entry in the test with MDA MB 231 cells [2] was “significant nuclear fragmentation”. The phosphatidyl serine translocation entry in the test on MDA MB 231 cells [3] is on record as “phosphatidyl serine translocation”. In addition, the “caspase 9 activity” value in the test on caspase-9 was “upregulated caspase activity”. The mitochondrial membrane potential result with MDA MB 231 cells [4] is “loss of mitochondrial membrane potential”. Besides, the HDAC inhibitory activity entry in test [5] was “significant inhibition; also recorded: substantial histone deacetylase 1 (HDAC-1) inhibitory activity”. In the test with MDA MB 231 cells [6], the cell migration entry is recorded as “cell migration inhibition was evident”. For the same compound, the MMP-9 activity entry in the test on MMP-9 was “reduced”. In the test with MDA MB 231 cells [7] (downregulated genes vs canonical gene sets), the “downregulated signaling pathways (gene set enrichment analysis)” value was “downregulated many signaling pathways that are critical in the cell death process”. Further, in the test on MDA MB 231 cells [7] (upregulated genes vs canonical gene sets), the “upregulated signaling pathways (gene set enrichment analysis)” value is “upregulation of signaling pathways of ER stress induced apoptosis, UPR response, autophagy, HDAC acetylation”. In the test with MDA MB 231 cells [7] (setting [8]), the “number of downregulated genes” value came out at 1642 genes and the “number of upregulated genes” value was 1337 genes.
